# Reference: patent US10988812B2, “Fusion genes associated with progressive prostate cancer” (UNIVERSITY OF PITTSBURGH - OF THE COMMONWEALTH SYSTEM OF …, priority 2013, dated 2021)
# Like-named read-outs stand apart in the source and are kept apart here.
# Key:
# Format in all cases: cell-based, human
# [1] = tested on: MAN2A1-FER transformed PC3 cells; test: Cell death of PC3 cells transformed with pCDNA4-MAN2A1-FER-FLAG/pCDNA6
# Description: FIG. 23. […] Prostate cancer cell line PC3 was transformed with pCDNA4-MAN2A1-FER-FLAG/pCDNA6. Expression of MAN2A1-FER was induced with 5 μg/mL tetracycline. Cells not treated with tetracycline nor any drug were used as background controls.
# The second approach is to target EGFR activation by EGFR inhibitors. These include erlotinib, cetuximab, […], canertinib and […]. Many of these drugs were FDA approved and is widely used in a variety of human solid tumors. To interrogate the effectiveness of EGFR activation interruption in treating prostate cancer, we treated MAN2A1-FER transformed PC3 cells with canertinib.
# [2] = tested on: PC3 cells containing TMEM135-CCDC67 breakpoint; test: Ganciclovir killing of PC3 cells after genome editing that integrates HSV-1 TK at the TMEM135-CCDC67 breakpoint
# Text: (§1) FIG. 28A-B. Genetic therapy targeting at TMEM135-CCDC67 genome breakpoint.
# (§2) The technique described above was applied to cells having the TMEM135-CCDC67 breakpoint. Since none of the fusion genes we identified so far was present in prostate cancer cell lines, we created a TMEM135-CCDC67 genome breakpoint that is identical to the prostate cancer sample we analyzed. The expression of the TMEM135-CCDC67 breakpoint was driven by a CMV promoter. Subsequently, we constructed a donor DNA that encompassed HSV-1 TK and the splicing sites of TMEM135 exon 14. When we co-transfected this donor DNA with a vector that expresses gRNA targeting at the TMEM135-CCDC67 breakpoint into PC3 cells containing this genome breakpoint, integration of TK into the genome was identified (FIG. 28A). […] This is remarkable in considering only 5-10% transfection efficiency using conventional liposome method. […] In light of this promising result, both TMEM135-CCDC67-TK cassette and NicKase-gRNATMEM135-CCDC67-BrkPt DNA are now in the process of packaging into Adenovirus. We will infect the recombinant virus into these cells in the future experiments. This will dramatically improve the delivery efficiency in the subsequent animal study and probably human.
# PC3 cells = test: as above; settings: PC3 cells without TMEM135-CCDC67 breakpoint, same treatment
# Text: as §1, §2
compound,measurement,setting,value
Cn1cnc2c(F)c(Nc3ccc(Br)cc3Cl)c(C(=O)NOCCO)cc21 [AZD6244],differential killing effect (MAN2A1-FER expressing versus not),"[1]; MEK interception, data not shown",largely moderated and vanished
C=CC(=O)Nc1cc2c(Nc3ccc(F)c(Cl)c3)ncnc2cc1OCCCN1CCOCC1 [Canertinib],cell death / killing of cells not expressing MAN2A1-FER,[1]; PC3 cells not expressing MAN2A1-FER (Tet-),minimal
same,specific killing of MAN2A1-FER expressing cells (FIG. 23),[1]; expression induced with 5 μg/mL tetracycline,specifically kills
C[C@@H](Oc1cc(-c2cnn(C3CCNCC3)c2)cnc1N)c1c(Cl)ccc(F)c1Cl [Crisotinib],cell death,[1],31%
same,cell death / killing of cells not expressing MAN2A1-FER,[1],hardly killed
same,lowering of cancer killing EC50 by expression of MAN2A1-FER,[1],~100 fold
same,specific killing of MAN2A1-FER expressing cells (FIG. 23),[1],specifically kills
Nc1nc(O)c2ncn(COC(CO)CO)c2n1 [ganciclovir],specific killing of TMEM135-CCDC67 breakpoint containing PC3 cells (FIG. 28B),[2],specific killing
same,cell death,PC3 cells,minimal cell death
